Assay results from publication PMC3509364 (Angewandte Chemie (International ed. in English), 2012).

Molecular target: PAK1 (Homo sapiens, UniProt Q13153)
Assay: PAK1 kinase inhibition, IC50 curves at 1 µM ATP
Assay type: biochemical

Sequence of PAK1 (Q13153 whole entry): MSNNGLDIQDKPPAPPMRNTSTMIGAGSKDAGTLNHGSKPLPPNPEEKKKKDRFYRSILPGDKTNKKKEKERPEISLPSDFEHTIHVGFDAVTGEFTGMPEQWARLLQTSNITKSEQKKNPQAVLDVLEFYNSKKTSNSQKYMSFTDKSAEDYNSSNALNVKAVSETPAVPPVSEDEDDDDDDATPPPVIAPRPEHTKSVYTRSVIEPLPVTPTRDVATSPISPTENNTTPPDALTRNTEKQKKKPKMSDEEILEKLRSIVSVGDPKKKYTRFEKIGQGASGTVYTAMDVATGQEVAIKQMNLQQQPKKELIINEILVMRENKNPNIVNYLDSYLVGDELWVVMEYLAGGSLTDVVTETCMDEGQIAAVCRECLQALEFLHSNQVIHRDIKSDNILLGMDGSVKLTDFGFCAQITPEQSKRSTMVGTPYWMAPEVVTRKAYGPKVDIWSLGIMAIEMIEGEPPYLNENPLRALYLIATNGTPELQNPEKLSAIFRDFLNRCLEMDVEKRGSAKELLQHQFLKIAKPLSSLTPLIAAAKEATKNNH

In the case of SeCN, the “fold weaker inhibitor of PAK1 than NCS complex 1” value (ratio of IC50 values, 1 µM ATP) is reported as 7.5 fold and the IC50 (read-out: IC50 against PAK1, 1 µM ATP (Figure 3)) is reported as 625 ± 60 nM.
